Data: PubChem BioAssay AID404 (SGCOxCompounds, 2006)

Biological target: Receptor-type tyrosine-protein phosphatase kappa (Homo sapiens) (UniProt Q15262)
Experiment: inhibitors of receptor tyrosine phosphatase kappa – biochemical, recombinant human enzyme, DiFMUP fluorescence (AID 404)
Conditions: recombinant PTPRK, at 50 µM, enzyme 34 ng/mL, 25 °C, DTT 5 mM, active compounds read high

Chain of Receptor-type tyrosine-protein phosphatase kappa (Homo sapiens) (Q15262 whole entry, looked up): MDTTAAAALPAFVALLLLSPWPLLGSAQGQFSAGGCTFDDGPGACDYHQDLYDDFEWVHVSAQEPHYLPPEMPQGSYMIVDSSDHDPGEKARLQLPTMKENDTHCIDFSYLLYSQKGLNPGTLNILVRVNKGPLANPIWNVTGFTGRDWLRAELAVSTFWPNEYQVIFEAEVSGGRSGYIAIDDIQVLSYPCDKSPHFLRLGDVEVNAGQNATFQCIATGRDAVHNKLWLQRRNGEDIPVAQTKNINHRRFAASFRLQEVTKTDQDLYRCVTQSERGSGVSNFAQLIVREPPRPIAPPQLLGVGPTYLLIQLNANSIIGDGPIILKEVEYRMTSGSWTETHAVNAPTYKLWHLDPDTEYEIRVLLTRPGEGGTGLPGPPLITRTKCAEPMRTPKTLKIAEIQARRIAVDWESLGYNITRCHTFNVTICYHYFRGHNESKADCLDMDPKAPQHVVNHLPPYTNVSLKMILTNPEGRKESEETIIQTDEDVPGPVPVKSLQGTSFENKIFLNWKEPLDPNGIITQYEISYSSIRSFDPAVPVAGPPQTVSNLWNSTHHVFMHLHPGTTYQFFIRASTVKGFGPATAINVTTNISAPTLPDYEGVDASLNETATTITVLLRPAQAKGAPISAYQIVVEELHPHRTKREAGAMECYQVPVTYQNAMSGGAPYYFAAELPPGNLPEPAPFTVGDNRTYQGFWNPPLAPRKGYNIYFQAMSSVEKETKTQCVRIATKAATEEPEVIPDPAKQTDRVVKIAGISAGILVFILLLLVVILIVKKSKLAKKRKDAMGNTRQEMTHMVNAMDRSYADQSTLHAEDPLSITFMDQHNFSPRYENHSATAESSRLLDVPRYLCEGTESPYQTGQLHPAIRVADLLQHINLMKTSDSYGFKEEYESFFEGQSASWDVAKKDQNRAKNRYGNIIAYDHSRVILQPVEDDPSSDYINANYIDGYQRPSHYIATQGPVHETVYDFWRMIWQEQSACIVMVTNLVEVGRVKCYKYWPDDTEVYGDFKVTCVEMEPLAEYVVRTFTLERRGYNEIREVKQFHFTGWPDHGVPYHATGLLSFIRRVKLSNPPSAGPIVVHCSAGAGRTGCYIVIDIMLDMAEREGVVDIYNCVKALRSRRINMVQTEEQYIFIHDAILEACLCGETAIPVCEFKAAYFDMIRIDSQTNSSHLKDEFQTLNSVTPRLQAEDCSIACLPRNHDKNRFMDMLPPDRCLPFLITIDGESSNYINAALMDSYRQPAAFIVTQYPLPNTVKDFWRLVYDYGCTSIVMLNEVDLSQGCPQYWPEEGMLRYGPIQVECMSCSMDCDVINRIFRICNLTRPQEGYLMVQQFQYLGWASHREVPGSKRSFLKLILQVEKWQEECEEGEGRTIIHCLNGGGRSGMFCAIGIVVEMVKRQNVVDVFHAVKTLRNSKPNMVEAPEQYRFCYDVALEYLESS

Point of comparison: CC1(C)OC(=O)C(=Cc2ccc(Br)o2)C(=O)O1, inhibition 11%. Against it:
- O=C(O)c1ccc(O)c(C=Nc2cccc(-c3nc4ccccc4o3)c2)c1 — higher, 31%
- O=C(COc1ccc([N+](=O)[O-])cc1)Nc1ccc(O)cc1C(=O)O — higher, 20%
- O=C1NC(=S)NC(=O)C1=C/C=C/c1ccco1 — higher, 22%
- NC1=NC(=O)/C(=C/C=C/c2ccc([N+](=O)[O-])o2)S1 — higher, 24%
- OO.OO.[K+].[O]=[V].c1ccc(-c2ccccn2)nc1 — higher, 93%
- OO.OO.[K+].[O]=[V].c1cnc2c(c1)ccc1cccnc12 — higher, 96%
- O=C(Nc1ccc(O)cc1C(=O)O)c1ccc(NC(=O)c2ccco2)cc1 — higher, 18%
- O=C(Nc1ccc(O)cc1C(=O)O)c1ccc2c(c1)C(=O)N(CC1CCCO1)C2=O (configuration not stated) — higher, 12%
- Cc1cc(C)c(N2C(=O)c3ccc(C(=O)Nc4ccc(O)cc4C(=O)O)cc3C2=O)c(C)c1 — higher, 38%
- O=C(O)c1ccc(O)c(C=Nc2ccc3oc(-c4cc(Cl)ccc4Cl)nc3c2)c1 — higher, 15%
- COc1ccc(-c2nc3cc(N=Cc4cc(C(=O)O)ccc4O)ccc3o2)cc1 — higher, 72%
- CC(=O)c1ccc2c(c1)C1C=CCC1C(C(=O)O)N2 (configuration not stated) — higher, 40%
- Cc1c(Cl)c(C)c([N+](=O)[O-])c(O)c1C=Nc1ccc(O)cc1C(=O)O — higher, 78%
- CC(C)CN1C(=O)c2ccc(C(=O)Nc3ccc(O)cc3C(=O)O)cc2C1=O — higher, 41%
- O=C([O-])c1ccccn1.OO.OO.[K+].[K+].[O]=[V] — higher, 98%
- Cc1ccc2nc(-c3cc(N=Cc4cc(C(=O)O)ccc4O)ccc3O)[nH]c2c1 — higher, 34%
- O=C(O)c1ccc(O)cn1.OO.[O]=[V] — higher, 94%
- O=C(O)c1ccc(O)c(/C=N/N(CCO)C2=NS(=O)(=O)c3ccccc32)c1 — higher, 32%
- COc1cccc(-c2nc3cc(N=Cc4cc(C(=O)O)ccc4O)ccc3o2)c1 — higher, 29%
- O=C1NC(=S)S/C1=C\C=C\c1ccc([N+](=O)[O-])o1 — higher, 78%
- O=C(O)c1ccc(O)c(C=Nc2ccc3oc(-c4cccc(Cl)c4Cl)nc3c2)c1 — higher, 45%
- F — higher, 14%
- [NH-]CO.[NH-]CO.[NH-]CO.[NH-]CO.[O]=[V][O][V]=[O] — higher, 89%
- CC(C)CCN1C(=O)c2ccc(C(=O)Nc3ccc(O)cc3C(=O)O)cc2C1=O — higher, 14%
- CC1=C(C)OC(Nc2ccc(Br)cc2C(=O)O)C=C1 (configuration not stated) — higher, 15%
- Oc1c(Cl)c(Cl)c(O)c2nsnc12 — higher, 12%
- CC(C)(c1ccc(NS(=O)(=O)C(F)(F)F)cc1)c1ccc(C(C)(C)c2ccc(NS(=O)(=O)C(F)(F)F)cc2)cc1 — higher, 14%
- O=C(O)c1ccc([O-])cn1.OO.OO.[K+].[K+].[O]=[V] — higher, 100%
- Cc1ccc(N=Cc2cc(C(=O)O)ccc2O)c(O)c1 — higher, 20%
- CN(N=O)c1ccc(O)c(O)c1 — higher, 96%
- CC(C)(C)NC(=O)CCN(/N=C/c1cc(C(=O)O)ccc1O)C1=NS(=O)(=O)c2ccccc21 — higher, 30%
